From PubChem BioAssay AID248 (DTP/NCI, 2004)
“And” between values parts separate entries of the source, which are not always exact repeats. Identical values can stand only once. Toxic doses and inconclusive results are not listed. Rule as the data show it: active = T/C of 150% or more; inactive = T/C below 125%.

System: L1210 leukemia ip in BDF1 mice, survival T/C
Experiment: NCI In Vivo Anticancer Drug Screen. Data for tumor model L1210 Leukemia (intraperitoneal) in B6D2F1 (BDF1) mice
Conditions: endpoint: mean survival time, higher = longer survival
In short: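 Read-out is survival time, reported as the treated-group measurement over the vehicle-control measurement.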

[1] = dose: 100.0 mg/kg/injection, schedule: Q01DX001 (ip), vehicle: Klucel (hydroxypropylcellulose) (HPC)
[2] = dose: 100.0 mg/kg/injection, schedule: Q01DX009 (ip), vehicle: Klucel (hydroxypropylcellulose) (HPC)
[3] = dose: 100.0 mg/kg/injection, schedule: Q04DX002 (ip), vehicle: Klucel (hydroxypropylcellulose) (HPC)
[4] = dose: 200.0 mg/kg/injection, schedule: Q01DX001 (ip), vehicle: Klucel (hydroxypropylcellulose) (HPC)
[5] = dose: 200.0 mg/kg/injection, schedule: Q01DX009 (ip), vehicle: Klucel (hydroxypropylcellulose) (HPC)
[6] = dose: 200.0 mg/kg/injection, schedule: Q04DX002 (ip), vehicle: Klucel (hydroxypropylcellulose) (HPC)
[7] = dose: 400.0 mg/kg/injection, schedule: Q01DX009 (ip), vehicle: Klucel (hydroxypropylcellulose) (HPC)
[8] = dose: 400.0 mg/kg/injection, schedule: Q04DX002 (ip), vehicle: Klucel (hydroxypropylcellulose) (HPC)
[9] = dose: 200.0 mg/kg/injection, schedule: Q01DX001 (ip), vehicle: saline
[10] = dose: 100.0 mg/kg/injection, schedule: Q01DX001 (ip), vehicle: saline with Tween-80
[11] = dose: 200.0 mg/kg/injection, schedule: Q01DX001 (ip), vehicle: saline with Tween-80
[12] = dose: 100.0 mg/kg/injection, schedule: Q01DX009 (ip), vehicle: saline with Tween-80
[13] = dose: 100.0 mg/kg/injection, schedule: Q04DX003 (ip), vehicle: saline with Tween-80
[14] = dose: 200.0 mg/kg/injection, schedule: Q01DX009 (ip), vehicle: saline with Tween-80
[15] = dose: 200.0 mg/kg/injection, schedule: Q04DX003 (ip), vehicle: saline with Tween-80
[16] = dose: 400.0 mg/kg/injection, schedule: Q04DX003 (ip), vehicle: saline with Tween-80
[17] = dose: 100.0 mg/kg/injection, schedule: Q04DX003 (ip), vehicle: Klucel (hydroxypropylcellulose) (HPC)
[18] = dose: 200.0 mg/kg/injection, schedule: Q04DX003 (ip), vehicle: Klucel (hydroxypropylcellulose) (HPC)
[19] = dose: 400.0 mg/kg/injection, schedule: Q04DX003 (ip), vehicle: Klucel (hydroxypropylcellulose) (HPC)
[20] = dose: 100.0 mg/kg/injection, schedule: Q04DX003 (ip), vehicle: saline
[21] = dose: 200.0 mg/kg/injection, schedule: Q04DX003 (ip), vehicle: saline
[22] = dose: 25.0 mg/kg/injection, schedule: Q01DX009 (ip), vehicle: saline
[23] = dose: 50.0 mg/kg/injection, schedule: Q01DX009 (ip), vehicle: saline

Measured: T/C

CC1([N+](=O)[O-])COP(=O)(NCc2cccnc2)OC1 (centres undefined)
inactive: dose: 50.0 mg/kg/injection, schedule: Q01DX001 (ip), vehicle: carboxymethylcellulose (CMC) 103 % of control | dose: 100.0 mg/kg/injection, schedule: Q01DX001 (ip), vehicle: carboxymethylcellulose (CMC) 95 % of control | dose: 200.0 mg/kg/injection, schedule: Q01DX001 (ip), vehicle: carboxymethylcellulose (CMC) 113 % of control | dose: 400.0 mg/kg/injection, schedule: Q01DX001 (ip), vehicle: carboxymethylcellulose (CMC) 95 % of control

O=C1Nc2ccccc2/C1=C/Cl
inactive: dose: 6.25 mg/kg/injection, schedule: Q04DX002 (ip), vehicle: saline with Tween-80 96 % of control | dose: 12.5 mg/kg/injection, schedule: Q04DX002 (ip), vehicle: saline with Tween-80 100 % of control | dose: 25.0 mg/kg/injection, schedule: Q04DX002 (ip), vehicle: saline with Tween-80 103 % of control

O=C(Nc1ccccc1F)OCCOc1ccccc1
inactive: [1] 97 % of control | [2] 95 % of control and 97 % of control | [3] 98 % of control and 115 % of control | [4] 97 % of control | [5] 95 % of control and 102 % of control | [6] 106 % of control and 115 % of control | dose: 400.0 mg/kg/injection, schedule: Q01DX001 (ip), vehicle: Klucel (hydroxypropylcellulose) (HPC) 94 % of control | [7] 95 % of control and 103 % of control | [8] 100 % of control and 103 % of control

CCN(CC)CCN=Cc1ccccc1OC
inactive: dose: 100.0 mg/kg/injection, schedule: Q01DX001 (ip), vehicle: saline 98 % of control | [9] 101 % of control

CCCCCCCCCCCCC1CC2CCCCC2C2CCCCC12 (centres undefined)
inactive: [10] 95 % of control | [11] 97 % of control | dose: 400.0 mg/kg/injection, schedule: Q01DX001 (ip), vehicle: saline with Tween-80 89 % of control

CCCCCCCCCCCCCCCCCCNC(=O)N1CCC(C)CC1
inactive: [3] 97 % of control | [6] 100 % of control | [8] 97 % of control

c1n[nH]c2c1CCCC2
inactive: [10] 89 % of control | [12] 98 % of control | dose: 100.0 mg/kg/injection, schedule: Q04DX002 (ip), vehicle: saline with Tween-80 97 % of control and 91 % of control | [13] 96 % of control and 104 % of control | [11] 86 % of control | [14] 98 % of control | dose: 200.0 mg/kg/injection, schedule: Q04DX002 (ip), vehicle: saline with Tween-80 94 % of control and 92 % of control | [15] 98 % of control and 108 % of control | dose: 400.0 mg/kg/injection, schedule: Q04DX002 (ip), vehicle: saline with Tween-80 94 % of control | [16] 100 % of control and 92 % of control

CSc1cccc(NC(=O)NCCCl)c1
inactive: [17] 104 % of control | [18] 103 % of control | [19] 93 % of control

O=C(O)c1ccc(C(=O)/C=N/O)nc1
inactive: [2] 90 % of control | [5] 93 % of control | [7] 97 % of control

Cc1cccc(NC(=O)NCCCl)c1Cl
inactive: [2] 97 % of control | [17] 97 % of control | [5] 97 % of control | [18] 94 % of control | [7] 100 % of control | [19] 94 % of control

CC1([N+](=O)[O-])COP(=O)(O)OC1 (centres undefined)
inactive: [9] 90 % of control | dose: 400.0 mg/kg/injection, schedule: Q01DX001 (ip), vehicle: saline 97 % of control

COc1ccc(C2(C#N)CCCCC2)cc1
inactive: [2] 109 % of control | [17] 97 % of control | [5] 98 % of control | [18] 100 % of control | [7] 94 % of control | [19] 101 % of control

O=C(CSCC(=O)c1ccc(Br)cc1)c1ccc(Br)cc1
inactive: dose: 100.0 mg/kg/injection, schedule: Q04DX003 (ip), vehicle: other 101 % of control | dose: 200.0 mg/kg/injection, schedule: Q04DX003 (ip), vehicle: other 93 % of control | dose: 400.0 mg/kg/injection, schedule: Q04DX003 (ip), vehicle: other 86 % of control

C[C@]1(O)CC[C@H]2[C@@H]3CC[C@@H]4CC(=O)CC[C@]4(C)[C@@]3(F)C(=O)C[C@@]21C
inactive: dose: 50.0 mg/kg/injection, schedule: Q01DX Z (sc), vehicle: steriod suspending solution 96 % of control | dose: 250.0 mg/kg/injection, schedule: Q01DX Z (sc), vehicle: steriod suspending solution 101 % of control | dose: 500.0 mg/kg/injection, schedule: Q01DX Z (sc), vehicle: steriod suspending solution 98 % of control

O=C(O)CCN(Cc1ccccc1)Cc1ccccc1
inactive: [12] 101 % of control | [13] 108 % of control | [14] 98 % of control | [15] 88 % of control | dose: 400.0 mg/kg/injection, schedule: Q01DX009 (ip), vehicle: saline with Tween-80 98 % of control | [16] 104 % of control

OCC(O)COc1cccc2cccnc12 (centres undefined)
inactive: [20] 110 % of control | [21] 101 % of control | dose: 400.0 mg/kg/injection, schedule: Q04DX003 (ip), vehicle: saline 103 % of control

CCN(CC)CCNCCN
inactive: dose: 12.5 mg/kg/injection, schedule: Q01DX009 (ip), vehicle: saline 107 % of control | [22] 111 % of control | [23] 101 % of control and 102 % of control | [20] 94 % of control | [21] 96 % of control

CCCCCCCCCCN1C(=O)C(Cl)=C(Cl)C1=O
inactive: dose: 25.0 mg/kg/injection, schedule: Q04DX003 (ip), vehicle: saline with Tween-80 103 % of control | dose: 50.0 mg/kg/injection, schedule: Q04DX003 (ip), vehicle: saline with Tween-80 94 % of control

CCCCCCCCCCCCCc1nc(N)nc(NCCCC)n1
inactive: [3] 92 % of control | [6] 89 % of control | [8] 100 % of control

O=C(CBr)NC(Cc1ccccc1)C(=O)O (centres undefined)
inactive: dose: 75.0 mg/kg/injection, schedule: Q01DX001 (ip), vehicle: saline 94 % of control and 90 % of control | dose: 150.0 mg/kg/injection, schedule: Q01DX001 (ip), vehicle: saline 103 % of control | dose: 300.0 mg/kg/injection, schedule: Q01DX001 (ip), vehicle: saline 90 % of control

CN(C)c1ccc(NC2=NCCO2)cc1
inactive: dose: 12.5 mg/kg/injection, schedule: Q04DX003 (ip), vehicle: saline 95 % of control | [22] 104 % of control | dose: 25.0 mg/kg/injection, schedule: Q04DX003 (ip), vehicle: saline 102 % of control | [23] 95 % of control | dose: 50.0 mg/kg/injection, schedule: Q04DX003 (ip), vehicle: saline 98 % of control | [20] 97 % of control | [21] 87 % of control

O=c1c(N=Nc2ccc(Br)cc2)c(O)n(-c2ccc(I)cc2)c(=S)n1-c1ccccc1
inactive: dose: 50.0 mg/kg/injection, schedule: Q01DX001 (ip), vehicle: Klucel (hydroxypropylcellulose) (HPC) 97 % of control | [1] 108 % of control | [4] 121 % of control

O=[N+]([O-])/C(Br)=C\c1ccc([N+](=O)[O-])cc1
inactive: dose: 75.0 mg/kg/injection, schedule: Q01DX001 (ip), vehicle: carboxymethylcellulose (CMC) 98 % of control | dose: 150.0 mg/kg/injection, schedule: Q01DX001 (ip), vehicle: carboxymethylcellulose (CMC) 105 % of control
